One compound from patent publication US12226400B2, “Neuroprotective disruption of Kv2.1/syntaxin interaction by small molecules” (UNIVERSITY OF PITTSBURGH-OF THE COMMONWEALTH SYSTEM OF …, priority 2018, dated 2025) can be followed below.

One experiment relates to NMDA receptors. Put plainly: Fura-2 ratiometric Ca2+ imaging during NMDA exposure. The experiment is classed as cell-based, rat. Conditions: 10 μM cpd5, NMDA 30 μM with 10 μM glycine; ±SEM. As to the method:
Intracellular Ca^2+ measurements were performed on the same cortical culture preparations as above, but with 20 DIV cells plated on MatTek glass-bottom 35 mm culture dishes. At this developmental stage, neurons robustly express both GluN2A and GluN2B subunits of the NMDA receptor. Neurons were incubated with the fluorescent Ca^2+ indicator Fura-2 AM ester (5 μM; Invitrogen) with 0.02% Pluronic F-127 (Invitrogen) for 1 h at 37° C. Culture dishes were then mounted on an inverted microscope stage (Olympus) and continuously perfused with a 10 mM HEPES-buffered normal salt solution. Perfusion rate (5 ml/min) was controlled with a gravity flow and a rapid-switching local perfusion system (Warner Instruments). […] A ratio of fluorescence emission (F) at 510 nm in response to excitations at 340 and 380 nm was acquired at 1 Hz (Fambda DG-4 and 10-B SmartShutter, Sutter Instruments) via camera (ORCAER, Hamamatsu) and saved to a computer using HCImage (Hamamatsu). Baseline Ca^2+ signals were recorded for 2 min before the first application of NMDA (30 μM plus 10 μM glycine) with or without 10 μM cpd5 (Cat #MolPort-009-741-732, Molport). […] Peak increases in intracellular calcium concentration were measured by calculating F/Fo (F, peak fluorescence; Fo, average signal across 2 min baseline period). The area under the response for the first 15 min of NMDA application was also calculated.

The subject of experiment [1] is layer 2/3 corticocallosal neuron AMPAR EPSCs. As to the kind of experiment: Slice electrophysiology, evoked AMPAR EPSCs in auditory cortex layer 2/3 corticocallosal neurons. The format is cell-based, mouse. As to the method:
Stereotaxic injections for electrophysiology. Male or female ICR mice P21-30 (Jackson Laboratory) were anesthetized with 3% isoflurane (1.5% maintenance) and placed on the stereotaxic frame (Kopf). Core body temperature was maintained at ˜37° C. with a heating pad and eyes were protected with ophthalmic ointment. Lidocaine (1%) was injected under the scalp and an incision was made into the skin at the midline to expose the skull. […] A volume of ˜0.12 μl fluorospheres was pressure injected (25 psi, 10 ms duration) from capillary pipettes (Drummond Scientific) with a Picospritzer (Parker-Hannifin). After injection, the pipette was held in the brain for 2 min before slowly withdrawing. The scalp of the mouse was closed with cyanoacrylate adhesive. […] Mice were monitored for signs of postoperative stress and pain.
Slice electrophysiology. […] Pipette capacitance was compensated and series resistance for recordings was lower than 15 MΩ and measured throughout the experiments. […]
To evoke AMPAR EPSCs, auditory cortex layer 2/3 neurons were stimulated locally with an Isoflex stimulator (AMPI), through a glass theta electrode containing ACSF, by a single 0.15 ms duration electrical pulse every 30 sec. AMPAR EPSCs were recorded in voltage clamp mode at −70 mV (peak values were averaged over a 0.3 ms time window). […]

As for `COc1ccc(CNC(=O)Nc2cccc(-c3nc4ccccc4s3)c2)cc1OC` [cpd5, 3-[3-(1,3-benzothiazol-2-yl)phenyl]-1-[(3,4-dimethoxyphenyl)methyl]urea], in the experiment on NMDA receptors, the “NMDA-induced Ca2+ response, AUC treated” value came out at 104.67±1.98 % Control and the “NMDA-induced Ca2+ response, F-peak treated” value is recorded as 101.26±1.47 % Control. In experiment [1] (10 μM cpd5, p=0.153), the “AMPAR EPSCs amplitude normalized to control” value worked out at 97.6±0.9%. In addition, in experiment [1] (Cpd5 10 μM, cortical layer 2/3 projection neurons, acute slices), the “threshold, amplitude or duration of evoked synaptic potentials” value was “No significant differences”.
